Earlier results as cited in publication PMC11859340, “The Therapeutic Potential of Spirooxindoles in Cancer: A Focus on p53–MDM2 Modulation” (Pharmaceuticals, 2025).
Like-named read-outs stand apart in the source and are kept apart here.

Tests used:
HeLa (cervical) [1] = system: HeLa (cervical); design: method as in PMID 37935912; settings: SRB; read-out: IC50 against HeLa
A549 (lung) [2] = system: A549 (lung); design: method as in doi:10.1080/10426507.2020.1723590; settings: MTT; read-out: IC50 against A549
[3] = system: HEK293T (embryonic kidney); design: method as in doi:10.1080/10426507.2020.1723590; settings: MTT; read-out: IC50 against HEK293T
p53 = system: p53; design: method as in doi:10.1080/10426507.2020.1723590; settings: for p53 receptor activation: A549, at 100 μM; for p53 reporter activation: A549, 1.56 to 100 μM compound concentrations
MDA-MB-231 “mutant p53” = system: MDA-MB-231 “mutant p53”; design: method as in PMID 37731691; settings: MTT; read-out: IC50 against MDA-MB-231
MCF7 “wild p53” = system: MCF7 “wild p53”; design: method as in PMID 37731691; settings: MTT; read-out: IC50 against MCF7
HCT116 (colon) = system: HCT116 (colon); design: method as in PMID 29302672; settings: at 10 μM, CCK-8
MCF7 (breast) [4] = system: MCF7 (breast); design: method as in PMID 29302672; settings: at 10 μM, CCK-8
A549 (lung) [5] = system: A549 (lung); design: method as in PMID 29302672; settings: at 10 μM, CCK-8
p53–MDM2 = system: p53–MDM2; design: method as in PMID 30458062
[6] = system: SK-OV-3 (ovarian cancer cell line with mutant p53); design: method as in PMID 30458062; settings: read-out: IC50 against SK-OV-3
[7] = system: SJSA-1 (osteosarcoma cancer cell line with wild p53); design: method as in PMID 30458062; settings: read-out: IC50 against SJSA-1
HeLa (cervical) [8] = system: HeLa (cervical); design: method as in doi:10.31788/RJC.2023.1638506; settings: MTT; read-out: IC50 against HeLa
PC3 (prostate) [9] = system: PC3 (prostate); design: method as in PMID 36174446; settings: MTT; read-out: IC50 against PC3
HCT-116 (colon) = system: HCT-116 (colon); design: method as in PMID 36174446; settings: MTT; read-out: IC50 against HCT-116
MDA-MB-231 (breast) = system: MDA-MB-231 (breast); design: method as in PMID 36174446; settings: MTT; read-out: IC50 against MDA-MB-231
MCF7 (breast) [10] = system: MCF7 (breast); design: method as in doi:10.31788/RJC.2023.1638506; settings: MTT; read-out: IC50 against MCF7
A549 (lung) [11] = system: A549 (lung); design: method as in PMID 36174446; settings: MTT; read-out: IC50 against A549
PC3 (prostate) [12] = system: PC3 (prostate); design: method as in PMID 34684885; settings: MTT; read-out: IC50 against PC3
HCT116 (p53^−/−) [13] = system: HCT116 (p53^−/−); design: method as in doi:10.1039/C5MD00450K; settings: read-out: GI50 against HCT116 (p53^−/−)
HCT116 (p53^−/−) [14] = system: HCT116 (p53^−/−); design: method as in PMID 28987608; settings: MTT; read-out: IC50 against HCT116 (p53^−/−)
PC-3 (p53−) = system: PC-3 (p53−); design: method as in PMID 30735387; settings: MTT; read-out: IC50 against PC-3 (p53−)

## O=C1c2ccccc2OC12C(c1ccc(Cl)cc1)C1CCCCN1C21C(=O)Nc2ccccc21 (centres unmarked) [77 (R = H)]
HeLa (cervical) [1]
  IC50: 2.5 ± 0.3 µM

## CN1C[C@H](c2ccccc2Cl)[C@]2(NC(=S)N(CC34CC5CC(CC(C5)C3)C4)C2=O)[C@]12C(=O)Nc1ccc(Br)cc12 [89 (R = Br, R’ = 2-ClC6H4)]
A549 (lung) [2]
  IC50: 7.2 ± 1.85 µM
[3]
  IC50: 7.63 ± 0.75 µM

## CN1C[C@H](c2ccc(Cl)cc2)[C@]2(NC(=S)N(CC34CC5CC(CC(C5)C3)C4)C2=O)[C@]12C(=O)Nc1ccc(Br)cc12 [89 (R = Br, R’ = 4-ClC6H4)]
p53
  p53 receptor activation: 2.03 fold

## CN1CC2(NC(=S)N(CC34CC5CC(CC(C5)C3)C4)C2=O)C2(C1)C(=O)Nc1ccc(Cl)cc12 (centres unmarked) [92 (R = Cl, R’ = Me)]
A549 (lung) [2]
  IC50: 5 ± 0.6 µM
[3]
  IC50: 2.8 ± 0.3 µM

## CN1CC2(NC(=S)N(CC34CC5CC(CC(C5)C3)C4)C2=O)C2(C1)C(=O)Nc1ccccc12 (centres unmarked) [92 (R = H, R’ = Me)]
p53
  p53 reporter activation: 1.06 to 4.39 folds

## O=C1N(CCn2cc(CO)nn2)c2cc(Br)ccc2[C@]12[C@@H](c1ccccc1)C(c1ccccc1)=NN2c1ccccc1 [101 (X = (CH2)2)]
MDA-MB-231 “mutant p53”
  IC50: 9.3 µM
MCF7 “wild p53”
  IC50: 11.9 µM

## O=C(c1ccc(Br)cc1)[C@@H]1S[C@@]2(C(=O)Nc3cccc(Br)c32)[C@@H](c2ccccc2)C[C@@H]1O [146 (R^1/R^2/R^3 = 4-Br, 4-BrC6H4, Ph)]
HCT116 (colon)
  % inhibition, HCT116: 81.7%
MCF7 (breast) [4]
  % inhibition, MCF7: 50.9%
A549 (lung) [5]
  % inhibition, A549: 86.9%

## O=C(O)c1ccc([C@H]2C[C@H]3[C@@H](N2)[C@H](c2cccc(Cl)c2F)C2(C(=O)Nc4cc(Cl)ccc42)N3CC2CC2)cc1 (some centres unmarked) [compound 52, reference compound]
p53–MDM2
  IC50: 0.004 µM
[6]
  IC50: > 25 µM
[7]
  IC50: 0.471 µM

## O=C(O)c1ccc(N2CC3C(C2=O)C(c2cccc(Cl)c2F)C2(C(=O)Nc4cc(Cl)ccc42)N3CC2CC2)cc1 (centres unmarked) [compound 62]
p53–MDM2
  IC50: 0.004 µM
[6]
  IC50: > 25 µM
[7]
  IC50: 0.161 µM

## O=C(O)c1ccc(N2CCC3C(C2=O)C(c2cccc(Cl)c2F)C2(C(=O)Nc4cc(Cl)ccc42)N3CC2CC2)cc1 (centres unmarked) [compound 63]
p53–MDM2
  IC50: 0.004 µM
[6]
  IC50: > 25 µM
[7]
  IC50: 0.547 µM

## CC(=O)N1C(=O)[C@@]2(S[C@@H](C(=O)c3ccccc3)[C@@H](O)C[C@@H]2c2ccccc2)c2c(Br)cccc21 [compound 147]
HCT116 (colon)
  % inhibition, HCT116: 56.4%
MCF7 (breast) [4]
  % inhibition, MCF7: 77.6%
A549 (lung) [5]
  % inhibition, A549: 70.3%

## COc1cccc2c1C(=O)c1c(O)c3c(c(O)c1C2=O)C[C@@](O)(C(=O)CO)C[C@@H]3O[C@H]1C[C@H](N)[C@H](O)[C@H](C)O1 [doxorubicin, reference compound]
HeLa (cervical) [8]
  IC50: 65.3 µM
PC3 (prostate) [9]
  IC50: 8.8 ± 0.3 µM
HCT-116 (colon)
  IC50: 13.1 ± 2.1 µM
MDA-MB-231 (breast)
  IC50: 5.82 ± 0.4 µM
MCF7 (breast) [10]
  IC50: 59.4 µM
A549 (lung) [11]
  IC50: 11.5 ± 0.8 µM
PC3 (prostate) [12]
  IC50: 1.9 ± 0.4 µM

## COc1ccc(C2=N[C@@H](c3ccc(Cl)cc3)[C@@H](c3ccc(Cl)cc3)N2C(=O)N2CCNC(=O)C2)c(OC(C)C)c1 [nutlin-3a, reference compound]
p53
  p53 reporter activation: 3.6 to 5.1 folds
  p53 receptor activation: 5.1 fold
HCT116 (p53^−/−) [13]
  GI50: 47.8 ± 1.9 µM
HCT116 (p53^−/−) [14]
  IC50: 47.8 ± 1.9 µM
A549 (lung) [2]
  IC50: 14.9 ± 0.6 µM
[3]
  IC50: 10.4 ± 0.8 µM
PC-3 (p53−)
  IC50: 28.1 to 29.6 µM
